The source of these data is patent US20220241331A1, “IDENTIFICATION OF RECURRENT MUTATED NEOPEPTIDES” (Yeda Research and Development Co. Ltd., priority 2019, published 2022).

The test system of experiment [1] is 17TIL. As to the kind of experiment: IFNγ release ELISA, 17TIL co-incubated with peptide-pulsed A*01:01 B-cells. The experiment is classed as cell-based, human. Conditions: for IFN-γ release from TIL stimulated by pulsed peptide: peptide-pulsed A*01:01 EBV-transformed B cells, overnight co-incubation, vs non-pulsed B-cell control (FIG. 3A); for TIL IFNγ response in peptide titration: titrated concentrations of pulsed peptide (FIG. 3B). On the procedure:
(§1) IFNγ's release from TIL, as measured in an enzyme-linked immunosorbent assay (ELISA), was used to quantify reactivity. Synthetic pure (>95% purity) mutant ([…] (SEQ ID NO: 1)) and wild-type ([…] (SEQ ID NO: 2)) peptides were purchased from GenScript and dissolved in DMSO.
(§2) EBV-transformed B-cells bearing HLA allele A*01:01 were used for peptide pulsing. A B-cell suspension at 1×10^6 cells/ml was incubated with the peptide of choice, at the desired concentration (0.001-10 μg/ml), for 4 h in a 37° C., 5% CO2, humidified incubator. The DMSO volume was kept at 1% in all samples. For the no-peptide control, DMSO devoid of peptides was added. The B-cells were washed in PBS three times before proceeding to the co-incubation with TILs. TILs were co-cultured with either cognate melanoma or EBV-transformed B-cells at a 1:1 ratio (10^5-2×10^6 cells) and incubated overnight in a 37° C., 5% CO2, humidified incubator. The soluble IFNγ secreted from TILs was quantified from the co-culture supernatant using Biolegend Human IFN-γ ELISA MAX Deluxe (Cat#430106). All experiments were conducted in biological triplicates.
(§3) To evaluate the immunogenicity of the NRAS.Q61K neo-antigen, two melanoma cell lines that harbor the HLA-A*01:01/NRAS.Q61K combination, 17T and 135T were analyzed. Synthetic mutant (ILDTAG ? EEY-SEQ ID NO: 1) or wild-type (ILDTAG ? EEY-SEQ ID NO: 2) peptide was pulsed on either one of three commercial, A*01:01 expressing, Epstein bar virus (EBV)-transformed B cells^35. No other HLA class-I allele was shared among all three B-cell lines, and no other HLA class-I allele expressed by these cell lines was predicted to bind the neo-peptide at hand (Table 2).
(§4) The peptide-pulsed B-cells were co-incubated with either 17TIL or 135TIL overnight, followed by measurement of peptide stimulated interferon-γ (IFN-γ) release from the TIL by means of enzyme-linked immunosorbent assay (ELISA). […] Peptide titration assays further confirmed specific TIL reactivity towards the HLA-A*01:01/NRAS.Q61K neo-antigen, for both 17TIL and 135TIL (FIG. 3B).
(In an ELISA, binding on a coated surface is turned into a signal by an enzyme label.)

For experiment [2], the system named is 135TIL. Briefly: IFNγ release ELISA, 135TIL co-incubated with peptide-pulsed A*01:01 B-cells. The experiment is classed as cell-based, human. To be noted: for IFN-γ release from TIL stimulated by pulsed peptide: peptide-pulsed A*01:01 EBV-transformed B cells, overnight co-incubation, vs non-pulsed B-cell control (FIG. 3A); for TIL IFNγ response in peptide titration: titrated concentrations of pulsed peptide (FIG. 3B). How it is done: as §1, §2, §3, §4

Experiment [3] concerns the target T1, NRAS Q61K (RAS.Q61K) peptide on HLA-A*01:01 (human).
T1 peptide: ILDTAGKEEY
As to the kind of experiment: multimer staining.
Method: (§5) Peripheral mononuclear cells (PBMC) from healthy donors were electroporated with in-vitro transcribed mRNA, coding for TCRα/TCRβ combinations of interest. […] (A) Flow cytometry plots for electroporated PBMC. Top row—mouse TCRβ constant region staining. Bottom row—[sequence]/A*01:01 tetramer staining. Cells were stained at 6-30 hours post electroporation. (B) IFNγ release from electroporated donor PBMC as measured in ELISA. A*01:01+ B-LCL IHW01161 was pulsed with either wild-type or mutant versions of the peptide at 10 μM prior to overnight co-incubation with electroporated PBMC. Supernatants were diluted 1:20 prior to assay performance to avoid saturation.

Experiment [4] deals with T2, RAS wild-type (NRAS) peptide on HLA-A*01:01 (human).
T2 peptide: ILDTAGQEEY
As to the kind of experiment: cytokine release.
Method: as §5

For experiment [5], the target named is T1, NRAS Q61K (RAS.Q61K) peptide on …. As to the kind of experiment: cytokine release.
Method: as §5

For the molecule “ILDTAGKEEY [RAS.Q61-derived neo-peptide, variant Q61K; presented on HLA-A*01:01]”, the results for the “minimum peptide concentration with significant IFNγ response” value in experiment [1] (peptide titration (FIG. 3B)) and in experiment [2] (peptide titration (FIG. 3B)) were 10 ng/mL and 1 ng/mL, respectively. Further, the “IFN-γ release from TIL stimulated by pulsed peptide” value (from here on “IFN-γ release from TIL stimulated”) in experiment [1] and in experiment [2] was “stimulated a clear interferon-γ (IFN-γ) signal” in each case. Besides, the “TIL IFNγ response in peptide titration” value in experiment [1] and in experiment [2] was “clear dose-response relationship” in each case.
Consider “ILDTAGQEEY [WT RAS.Q61-derived peptide, reference compound]”, for which, in experiment [1], the “IFN-γ release from TIL stimulated” value is on record as “did not elicit significant increase over a non-pulsed B-cell control”; the “TIL IFNγ response in peptide titration” value is “non-significant and did not depend on peptide concentration”. In experiment [2], the “IFN-γ release from TIL stimulated” value is reported as “did not elicit significant increase over a non-pulsed B-cell control”; the “TIL IFNγ response in peptide titration” value was “non-significant and did not depend on peptide concentration”.

B1: N17.2 (TCR)
alpha TRAV5 TRAJ9 CDR3: CAESSGGGFKTIF
beta TRBV6-6 TRBJ2-7 CDR3: CASSTPGPSAYEQYF
As to B1, the results for the binding result in experiment [3] and in experiment [4] were “recognises” and “no recognition”, respectively.

B2: N135.1 (TCR)
alpha TRAV19 TRAJ39 CDR3: CALSESHNNAGNMLTF
beta TRBV6-1 TRBJ1-1 CDR3: CAASQNTEAFF
B2: the binding result is reported as “recognises” in experiment [3] and “no recognition” in experiment [4].

B3: NA135.1/NB17.3 (TCR)
alpha TRAV19 TRAJ39 CDR3: CALSESHNNAGNMLTF
beta TRBV6-1 TRBJ1-1 CDR3: CAEGENTEAFF
Consider B3, for which, in experiment [5], the binding result is given as “recognises”.

B4: N17.3 (TCR)
alpha TRAV19 TRAJ17 CDR3: CALSESGDAAGNKLTF
beta TRBV6-1 TRBJ1-1 CDR3: CAEGENTEAFF
For B4, the binding result in experiment [3] is recorded as “recognises”; in experiment [4] it was “no recognition”.
